Assay type in all cases: cell-based, human
Holding throughout (settings): multiple exposure: four applications every 24 h, analyzed 12 h after the last; 30 μM ATL, 100 μM GER, 20 μM LOV

Assay [1] concerns HMGCR mRNA. The assay can be described thus: RT-qPCR mRNA expression in dHepaRG cells. Here is the method:
The mRNA and protein expression changes were measured after a single administration of ALA and GER. Three concentrations were selected for each compound (non-toxic, non-toxic/slightly toxic and toxic). The cholesterol level of the dHepaRG cells was measured after a multiple exposure of the highest non-toxic concentrations of tested compounds. ATL (30 µM) and GER (100 µM) were administered four times every 24 h. The expression changes of genes and proteins related to cholesterol metabolism were measured in both single and multiple exposure experiments.
All treatments were performed in triplicates and every experiment was performed three times. The cells were washed twice with ice cold phosphate-buffered saline (PBS), scrapped and stored at −80 °C until use. Total RNA from cells was isolated using TriReagent according to the manufacturer’s instructions (Biotech, Prague, Czech Republic). The purified RNA was dissolved in 40 µL of diethyl pyrocarbonate (DEPC)-treated water (0.01% DEPC in HPLC water, autoclaved) and stored at −80 °C. The measurement of absorbance at 260 and 280 nm using the NanoDrop ND-1000 UV–VIS Spectrophotometer (Thermo Fisher Scientific, Pardubice, Czech Republic) was used to determine RNA yields and purity. Subsequently, the RNA (4 µg) was treated with 2 U of DNase I (New England Biolabs, Ipswich, MA, USA) in a final volume of 30 µL for 25 min at 37 °C, 1.5 µL of 0.1 M ethylenediaminetetraacetic acid was added and the DNAse was inactivated by heat (5 min at 75 °C). The solution was diluted to a concentration of 0.1 µg/µL. The DNAse treated RNA was stored at −80 °C until further analyses. […] Fluorescence data were recorded at the end of each amplification step. Relative expression levels of the target genes were calculated as fold changes in triplicates for each group using the 2^−ΔΔCt method by normalization to the geometric mean of the Ct values of Sdha and Ywhaz, which were used as reference genes.

The test system of assay [2] is HMGCS mRNA. As to the kind of experiment: RT-qPCR mRNA expression in dHepaRG cells.
Procedure: Three concentrations were selected for each compound (non-toxic, non-toxic/slightly toxic and toxic). The cholesterol level of the dHepaRG cells was measured after a multiple exposure of the highest non-toxic concentrations of tested compounds. […] The expression changes of genes and proteins related to cholesterol metabolism were measured in both single and multiple exposure experiments.
All treatments were performed in triplicates and every experiment was performed three times. The cells were washed twice with ice cold phosphate-buffered saline (PBS), scrapped and stored at −80 °C until use. Total RNA from cells was isolated using TriReagent according to the manufacturer’s instructions (Biotech, Prague, Czech Republic). The purified RNA was dissolved in 40 µL of diethyl pyrocarbonate (DEPC)-treated water (0.01% DEPC in HPLC water, autoclaved) and stored at −80 °C. The measurement of absorbance at 260 and 280 nm using the NanoDrop ND-1000 UV–VIS Spectrophotometer (Thermo Fisher Scientific, Pardubice, Czech Republic) was used to determine RNA yields and purity. Subsequently, the RNA (4 µg) was treated with 2 U of DNase I (New England Biolabs, Ipswich, MA, USA) in a final volume of 30 µL for 25 min at 37 °C, 1.5 µL of 0.1 M ethylenediaminetetraacetic acid was added and the DNAse was inactivated by heat (5 min at 75 °C). The solution was diluted to a concentration of 0.1 µg/µL. The DNAse treated RNA was stored at −80 °C until further analyses. The first strand cDNA was synthesized from 800 ng of total RNA and 1 µL of 50 µM random hexamers (Generi Biotech, Hradec Kralove, Czech Republic) using ProtoScript II reverse transcriptase (New England Biolabs, Ipswich, MA, USA). After the initial heat denaturation of total RNA (65 °C for 5 min), 4 µL of 5× ProtoScript II RT Reaction Buffer, 2 µL of 10× dithiothreitol (DTT), 2 µL of deoxynucleotide (dNTP) Mix 5 mM, 3.5 µL of H2O, and 0.5 µL of ProtoScript II 200 U/µL were added and mixed by pipetting. The reactions (20 µL) were incubated for 10 min at 25 °C, for 50 min at 42 °C, and for 5 min at 80 °C. The obtained cDNAs were diluted 1:6 by DEPC water. The qPCR analyses were carried out using QuantStudio 6 Flex (Applied Biosystems, Foster City, CA, USA) with SYBR green I (Xceed qPCR SG Mix, Institute of Applied Biotechnologies, Prague, Czech Republic) detection according to the manufacturer’s protocol. […] Fluorescence data were recorded at the end of each amplification step. Relative expression levels of the target genes were calculated as fold changes in triplicates for each group using the 2^−ΔΔCt method [28] by normalization to the geometric mean of the Ct values of Sdha and Ywhaz, which were used as reference genes.
For assay [3], the system named is SREBP-2 (F). As to the kind of experiment: Western blot protein level in dHepaRG cells. Here is the method: All the treatments were performed in triplicates. Protein concentration was measured using the bicinchoninic acid (BCA) protein assay (Sigma Aldrich, Prague, Czech Republic) according to the manufacturer’s instructions. The proteins were loaded onto a 10% sodium dodecyl sulfate (SDS; w/v)–polyacrylamide gel (with 4% stacking gel) and separated by SDS-PAGE electrophoresis. The proteins were transferred onto a nitrocellulose membrane using wet blot (100 V, 90 min). The membrane blocking was performed in a 5% non-fat dry milk/TRIS-buffered saline-Tween-20 (TBS-T) solution at room temperature for 2 h. Incubation with primary antibodies was accomplished overnight at 10 °C. β-actin was used as housekeeping protein (the list of primary antibodies in Table S2). Afterwards, the membrane was washed with 0.05% TBS-T solution for 6 × 5 min, incubated with respective secondary antibodies conjugated with horseradish peroxidase (bovine anti-rabbit (sc2370, Santa Cruz Biotechnology, Santa Cruz, CA, USA) at room temperature for 1.5 h, and rinsed with TBS-T solution for 6 × 5 min. Visualization of protein bands was carried out using a chemiluminescence kit (GE Healthcare, Buckinghamshire, UK).

In the case of `CC[C@H](C)C(=O)O[C@H]1C[C@@H](C)C=C2C=C[C@H](C)[C@H](CC[C@@H]3C[C@@H](O)CC(=O)O3)[C@H]21` [LOV, lovastatin, reference compound], the “HMGCR mRNA level” value in assay [1] is on record as “decreased significantly”. The “HMGCS mRNA level” value in assay [2] is listed as “decreased significantly”. For the same molecule, the “SREBP-2 (F) protein level” value in assay [3] was “decreased”.

The record behind these values is article PMC7353089, “The Hepatotoxicity of Alantolactone and Germacrone: Their Influence on Cholesterol and Lipid Metabolism in Differentiated HepaRG Cells” (Nutrients, 2020).
